Key:
[1] = system: B16F10 mouse melanoma cells; assay: MHC expression associated with IFNγ signaling, flow cytometry; type: cell-based; settings: B16-F10, 3 uM compound, 48 hours, normalized to DMSO/with IFNγ control, read-out: % MHC in cells treated with Compound at 3 uM relative to negative control (DMSO)
Experimental: B16F10 mouse melanoma cells (ATCC Cat #CRL-6475, Manassas, VA) are seeded at approximately a density of 500 cells per well in a 384-well clear bottom plate (Corning Cat #3765, Corning, 5 NY) in 25 μL total volume of DMEM+10% FBS (Sigma Cat #D6429 and Sigma Cat #F4135, St. Louis, MO). Cells are allowed to adhere overnight at 37° C.+5% CO2. On the following day, 12.5 μL of mouse IFNγ (RD systems Cat #485-MI/CF, Minneapolis, MN) is added to half of the plate (columns 13-24) at a concentration of 2 ng/mL for a final assay concentration of 0.5 ng/mL of IFNγ. Media only (12.5 μL of DMEM+10% FBS) is added to the remainder of the 10 plate (columns 1-12). Next, compounds resuspended in DMSO (Sigma Cat #D2650) at 100 mM are diluted in semi-log dilutions in DMSO ranging from 100 mM to 0.001 mM and DMSO only controls are included. The compound/DMSO dilutions are further diluted 1:250 in DMEM+10% FBS, and 12.5 μL of these dilutions are added in triplicates to cells of both treatment arms (with and without IFNγ). Compounds are only dosed in the inner 240 wells, avoiding the outer 2-well perimeter of the plate to minimize edge effects. Finally, the plate is loaded into an IncuCyte® S3 Live Cell Analysis System (Essen Bioscience-Sartorius, Ann Arbor, MI) maintained in a 37° C.+5% CO2 incubator, allowed to equilibrate for 2 hours, and treated for 48 hours. MHC levels are measured by flow cytometry using a FITC anti-mouse H-2kb antibody (clone AF6-88.5), and levels are normalized based on DMSO/with IFNγ control. Table 7 below summarizes the percentage in MHC expression in cells treated with or without compounds disclosed herein at a specified concentration.

[2] = system: OT-1 cells; assay: T-cell activation: intracellular production of IFNγ and TNFα in exhausted OT-1 cells; type: cell-based; settings: 10 uM compound, OT-1 cells restimulated with 1 μM OVA, read-out: % TNFa + /IFNg + production in compound-treated cells (uM compound) relative to negative control (DMSO)
Experimental: 1*10^6 OT-1 cells are seeded in a 24well in a volume of 1 mL of RPMI/10% FCS, and activated with 10 nM OVA protein for 48 h. Cells are then split 1:4 into 96well plates after two washes in warm media. To induce exhaustion, cells are then expanded for 3 days in the presence of vehicle control or a compound described herein (e.g., PTPN2 inhibitor) various concentrations, as well as 5 ng/ml IL-7 and 5 ng/ml IL-15, with the addition of fresh OVA on each day. After this point, cells are treated with Brefeldin A and restimulated with 1 μM of OVA for 4-6h, and cells are stained to assess production of IFNγ and TNFα intracellularly by flow cytometry. The results are shown as increase in percentage production of IFNγ and TNFα in cells treated with an exemplified compound at 10 uM, relative to a negative control (DMSO) of cells without being treated with the compound but merely DMSO (a solvent in which exemplified compounds are dissolved). See Table 10 below summarizes percentage increase in IFNγ and TNFα intracellular production in cells treated with an exemplified compound (at 10 uM) or without it, relative to a negative control (DMSO).

SMILES | activation at 3 µM [1] [%] | activity at 10 µM [2] [%]
CN1CCCC(COc2ccc3cc(O)c(N4CC(=O)NS4(=O)=O)c(F)c3n2)C1 (centres unmarked) [Compound 176] | > 10 | 193
CC(C)CCNc1ccc2cc(O)c(N3CC(=O)NS3(=O)=O)c(F)c2n1 [Compound 117] | > 10 | 236
CC(C)CCOc1ccc2cc(O)c(N3CC(=O)NS3(=O)=O)c(F)c2n1 [Compound 135, 5-(8-fluoro-6-hydroxy-2-(isopentyloxy)quinolin-7-yl)-1,2,5-thiadiazolidin-3-one 1,1-dioxide] | > 10 | 504
CNc1ccc2cc(O)c(N3CC(=O)NS3(=O)=O)c(F)c2n1 [Compound 153] | > 10 | 132
CN(C)CCOc1ccc2cc(O)c(N3CC(=O)NS3(=O)=O)c(F)c2n1 [Compound 178] | > 10 | 168
COc1ccc2cc(O)c(N3CC(=O)NS3(=O)=O)c(F)c2n1 [Compound 154] | > 10 | 152
O=C1CN(c2c(O)cc3ccc(OCC4CCS(=O)(=O)CC4)nc3c2F)S(=O)(=O)N1 [Compound 143] | > 10 | 174

Reference: patent publication US20240166641A1, “HETEROCYCLES AND USES THEREOF” (Kumquat Biosciences Inc., priority 2021, published 2024)
